Laboratory results as given in EP3362444B1, “COMPOUNDS” (Exonate Limited, priority 2015, dated 2017).
Entries after “also recorded” stand apart in the source; their conditions may differ.

Key:
SRPK1 [1] = biological target: T1, SRPK1 (Homo sapiens, UniProt Q96SB4); assay: Differential scanning fluorimetry (DSF); assay type: binding; conditions: higher ΔTm indicates higher affinity
T1 construct: 0.1 µg of purified SRPK1 kinase
Method: Differential Scanning Fluorimetry was performed as described in Federov et al (2011). […]

SRPK1 [2] = biological target: T1, SRPK1; assay: In vitro kinase assay (Kinase-Glo), SRPK1 inhibition; assay type: biochemical; conditions: for IC50: SRPK1 inhibition assay, 1 µM ATP, SRSF1 RS peptide, 30°C 10 minutes
Method: Candidate compounds were tested for SRPK1 inhibition using a Kinase-Glo assay (Promega, Southampton, UK32). […] Candidate compounds were serially diluted from 10 µM to 0.5 nM and added to the reaction mixture, wells with omitted SRPK1 kinase and omitted compounds were also added as controls. All wells contained 1% DMSO (Fisher Scientific, Loughborough, UK). One micromolar ATP was added, wells minus ATP were used as background controls. The plate was then incubated at 30°C for 10 minutes. An equal volume of Kinase-Glo (25 µL; Promega) was added to each well and the plate read for luminescence using a Fluostar Optima (BMG Labtech) .

[3] = system: primary RPE cells and ARPE-19 cells; assay: qRT-PCR and conventional PCR of VEGF-A alternative splicing; assay type: cell-based, human; conditions: Figures 8 and 9
Source text: Primary human retinal epithelial cells were lysed in Trizol reagent and mRNA was extracted using the method of Chomczynski and Sacchi, or using an RNeasy RNA extraction kit (Qiagen, UK). mRNA was reverse transcribed using Thermoscript reverse transcriptase (Fisher Scientific, UK). The cDNA was amplified using primers designed to amplify the region spanning the proximal and distal splice sites in human VEGF-A165a and VEGF-A165b, to amplify both isoforms and differentiate between them due to the fact that the exon 8b-containing isoform is 66-bp shorter than the exon 8a-containing isoform. The primers used were; 5'-[…]-3' (SEQ ID NO:2) and 5'-[…]-3' (SEQ ID NO:3) with the following conditions; 96°C for 2 min followed by 45 cycles at 96°C-30s, 60°C-30s and 72 °C -30 s. The PCR mix consisted of DNA: 200 ng, MgCl2 0.25 mM, Primer each 1 nM, Taq polymerase 1 unit and dH2O up to 25 µl. Control plasmid concentration: VEGF165a 500 ng and VEGF165b 1 µg. PCR products were run on 3% agarose gels containing 0.5 µg/ml ethidium bromide.
RNA was isolated and reverse transcribed as described above. Quantitative PCR (qPCR) was performed with a LightCycler 480 (Roche) q-PCR machine. The qPCR mix included PCR-grade dH2O 3 µl, PCR Primer (1 µM) 2 µl. […]
VEGF-A alternative splicing was further measured in retinal pigmented epithelial cells by qRT-PCR and conventional PCR.

laser-induced CNV = assay: Laser-induced choroidal neovascularisation (CNV) model, topical eye drops; assay type: in vivo, C57/B6 mice
Method: 6-8 week-old female C57/B6 mice were anesthetized with an intraperitoneal injection of a mixture of 50 mg/kg ketamine and 0.5 mg/kg medetomidine. The pupils were immediately dilated by topical (eyedrop) application with a dilator such as 5% phenylephrine hydrochloride and 1% tropicamide. Four photocoagulation lesions were delivered with a green Merilas 532α laser (450 mW, 130 ms) between the "large" retinal vessels in clear space with no vessels in a peripapillary distribution at a distance of 1-2 disc-diameters in each eye. Only clean laser lesions with a subretinal bubble at the time of treatment were included in the study. Immediately following laser photocoagulation the animals were given topical eye drops of candidate compounds twice daily (10 µl, eyes held for 30 seconds to prevent animal wiping drop away).
After one week, mice were anesthetized with an intraperitoneal injection of a mixture of 50 mg/kg ketamine and 0.5 mg/kg medetomidine. The pupils were immediately dilated by topical (eyedrop) application with a dilator such as 5% phenylephrine hydrochloride and 1% tropicamide. Mice were administered an intraperitoneal injection of sodium fluorescein (10%). Phase contrast and green fluorescent fundus images were taken with an angiography microscope and camera with each lesion in focus. The mice were killed by a schedule 1 method and eyes were either unfixed for retinal dissection and protein extraction, or fixed and enucleated and choroids stained and examined.

T1 sequence (Q96SB4 whole entry): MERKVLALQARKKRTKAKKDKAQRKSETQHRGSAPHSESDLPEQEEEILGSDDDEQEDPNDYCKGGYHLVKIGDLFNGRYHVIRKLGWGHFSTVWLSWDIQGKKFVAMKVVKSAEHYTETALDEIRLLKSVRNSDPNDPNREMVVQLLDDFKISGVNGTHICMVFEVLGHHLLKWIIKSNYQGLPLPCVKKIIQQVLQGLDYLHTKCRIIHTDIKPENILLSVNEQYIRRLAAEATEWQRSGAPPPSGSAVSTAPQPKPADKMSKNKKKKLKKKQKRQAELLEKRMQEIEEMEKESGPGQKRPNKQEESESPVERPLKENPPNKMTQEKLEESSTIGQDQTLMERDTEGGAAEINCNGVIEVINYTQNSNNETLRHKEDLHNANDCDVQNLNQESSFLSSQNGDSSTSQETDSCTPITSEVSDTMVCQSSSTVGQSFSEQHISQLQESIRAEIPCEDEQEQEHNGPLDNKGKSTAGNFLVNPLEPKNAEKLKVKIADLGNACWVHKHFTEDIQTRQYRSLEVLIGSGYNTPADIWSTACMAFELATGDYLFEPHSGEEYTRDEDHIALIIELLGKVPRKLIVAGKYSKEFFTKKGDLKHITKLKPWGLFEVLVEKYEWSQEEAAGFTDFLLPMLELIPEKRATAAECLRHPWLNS

Structure (SMILES)	DSF (ΔTm/°C) (SRPK1 [1]) [°C]	IC50 (SRPK1 [2]) [nM]	further results
Cc1ccc(C(=O)Nc2cc(C(F)(F)F)ccc2N2CCN(Cc3cn(Cc4ccccc4)nn3)CC2)o1 [Compound 7, N-(2-(4-((1-benzyl-1H-1,2,3-triazol-4-yl)methyl)piperazin-1-yl)-5-(trifluoromethyl)phenyl)-5-methylfuran-2-carboxamide]	8.84	337	–
Cc1ccc(C(=O)Nc2cc(C(F)(F)F)ccc2N2CCN(Cc3ccco3)CC2)o1 [Compound 8, 5-methyl-N-(2-(4-((furan-2-yl)methyl)piperazin-1-yl)-5-(trifluoromethyl)phenyl)furan-2-carboxamide]	15.95	17.6	potency against SRPK1 relative to analogous compounds in which R3 is a pyridyl ring (SRPK1 [2]; by kinase assay or differential scanning fluorimetry, Figures 1 and 2): improved potency
O=C(Nc1cc(C(F)(F)F)ccc1N1CCN(Cc2cc[nH]n2)CC1)c1ccco1 [Compound 9, N-(2-(4-((1H-pyrazol-3-yl)methyl)piperazin-1-yl)-5-(trifluoromethyl)-phenyl)furan-2-carboxamide]	11.64	62.4	–
Cn1ccc(CN2CCN(c3ccc(C(F)(F)F)cc3NC(=O)c3ccco3)CC2)n1 [Compound 10, N-(2-(4-((1-methyl-1H-pyrazol-3-yl)methyl)piperazin-1-yl)-5-(trifluoromethyl)phenyl)furan-2-carboxamide]	10.87	–	–
O=C(Nc1cc(C(F)(F)F)ccc1N1CCN(Cc2cscn2)CC1)c1ccco1 [Compound 11, N-(2-(4-(thiazol-4-ylmethyl)piperazin-1-yl)-5-(trifluoromethyl)-phenyl)furan-2-carboxamide]	12.94	–	–
O=C(Nc1cc(C(F)(F)F)ccc1N1CCN(Cc2cncs2)CC1)c1ccco1 [Compound 13, N-(2-(4-(thiazol-5-ylmethyl)piperazin-1-yl)-5-(trifluoromethyl)-phenyl)furan-2-carboxamide]	12.99	39.5	–
O=C(Nc1cc(C(F)(F)F)ccc1N1CCN(Cc2cc[nH]n2)CC1)c1ccc(C2CCOCC2)o1 [Compound 14, N-(2-(4-((1H-pyrazol-3-yl)methyl)piperazin-1-yl)-5-(trifluoromethyl)-phenyl)-5-(tetrahydro-2H-pyran-4-yl)furan-2-carboxamide]	17.36	3.5	levels of VEGF165b relative to VEGF165 RNA [3]: decrease VEGF-A165a/VEGF165b mRNA isoform expression; also recorded: decrease in VEGF165
O=C(Nc1cc(C(F)(F)F)ccc1N1CCN(Cc2cscn2)CC1)c1ccc(C2CCOCC2)o1 [Compound 19, 5-(tetrahydro-2H-pyran-4-yl)-N-(2-(4-(thiazol-4-ylmethyl)piperazin-1-yl)-5-(trifluoromethyl)phenyl)furan-2-carboxamide]	18.03	1.7	–
O=C(Nc1cc(C(F)(F)F)ccc1N1CCN(Cc2ccco2)CC1)c1ccccn1 [Compound 28, N-(2-(4-(furan-2-ylmethyl)piperazin-1-yl)-5-(trifluoromethyl)phenyl)-picolinamide]	14.44	–	–
O=C(Nc1cc(Cl)ccc1N1CCN(Cc2ccco2)CC1)c1ccccn1 [Compound 29, N-(5-chloro-2-(4-(furan-2-ylmethyl)piperazin-1-yl)phenyl)picolinamide]	11.97	–	–
O=C(Nc1cc(C(F)(F)F)ccc1N1CCN(Cc2ccno2)CC1)c1ccccn1 [Compound 62, N-(2-(4-(isoxazol-5-ylmethyl)piperazin-1-yl)-5-(trifluoro-methyl)phenyl)picolinamide]	–	2.8	–
O=C(Nc1cc(C(F)(F)F)ccc1N1CCN(Cc2ccno2)CC1)c1ccco1 [Compound 63, N-(2-(4-(isoxazol-5-ylmethyl)piperazin-1-yl)-5-(trifluoro-methyl)phenyl)furan-2-carboxamide]	–	317	–
O=C(Nc1cc(C(F)(F)F)ccc1N1CCN(Cc2ccno2)CC1)c1ccc(C2CCOCC2)o1 [Compound 64, N-(2-(4-(isoxazol-5-ylmethyl)piperazin-1-yl)-5-(trifluoro-methyl)phenyl)-5-(tetrahydro-2H-pyran-4-yl)furan-2-carboxamide]	–	5.5	–
O=C(Nc1cc(C(F)(F)F)ccc1N1CCN(Cc2cnoc2)CC1)c1ccccn1 [Compound 67, N-(2-(4-(isoxazol-4-ylmethyl)piperazin-1-yl)-5-(trifluoro-methyl)phenyl)-picolinamide]	–	8.8	–
O=C(Nc1cc(C(F)(F)F)ccc1N1CCN(Cc2cncs2)CC1)c1ccc(C2CCOCC2)o1 [Compound 70, 5-(tetrahydro-2H-pyran-4-yl)-N-(2-(4-(thiazol-5-ylmethyl)piperazin-1-yl)-5-(trifluoromethyl)phenyl)furan-2-carboxamide]	–	0.5	–
O=C(Nc1cc(C(F)(F)F)ccc1N1CCN(Cc2cocn2)CC1)c1ccccc1 [Compound 71, N-(2-(4-(oxazol-4-ylmethyl)piperazin-1-yl)-5-(trifluoromethyl)phenyl) benzamide]	–	718	–
O=C(Nc1cc(C(F)(F)F)ccc1N1CCN(Cc2ccoc2)CC1)c1ccccn1 [Compound 72, N-(2-(4-(furan-3-ylmethyl)piperazin-1-yl)-5-(trifluoromethyl)phenyl)picolinamide]	–	5.3	–
O=C(Nc1cc(C(F)(F)F)ccc1N1CCN(Cc2c[nH]c3ccccc23)CC1)c1ccco1 [Compound 75, N-(2-(4-((1H-indol-3-yl)methyl)piperazin-1-yl)-5-(trifluoromethyl)phenyl)furan-2-carboxamide]	–	74.9	–
O=C(Nc1cc(C(F)(F)F)ccc1N1CCN(Cc2cocn2)CC1)c1ccc(-c2ccncc2)o1 [N-(2-(4-(oxazol-4-ylmethyl)piperazin-1-yl)-5-(trifluoromethy] [N-(2-(4-(oxazol-4-ylmethyl)piperazin-1-yl)-5-(trifluoromethyl)phenyl)-5-(pyridin-4-yl)furan-2-carboxamide]	–	–	factor more effective than the known pazopanib-based eye drop treatment for AMD (laser-induced CNV; eye drop): 10; anti-angiogenic efficacy as an eye drop (CNV lesion size) (laser-induced CNV; twice daily eye drops, compared with reference compound, Figures 4-7): same efficacy
